According to US20100291009A1, “PREPARATION COMPRISING CHROMAN-2-ONE DERIVATIVES” (Merck Patent Gesellschaft Mit Beschrankter Haftung, priority 2008, published 2010):

target: tyrosinase from fungi; test: Tyrosinase assay (L-DOPA as substrate); type: biochemical; details: tyrosinase from fungi (16U), phosphate buffer pH 6.8, 25° C., optical density at 470 nm
Procedure: The action of the compounds I or Ia as skin lighteners is tested through their ability to inhibit the enzyme tyrosinase and thus to suppress melanin synthesis.
The inhibiting action of the compounds of the formula I or Ia against tyrosinase is assessed using tyrosinase from fungi and L-DOPA as substrate.
The compounds, as described in Examples 1 to 3 and the comparative compounds of Examples 10 and 11, and L-dopa are pre-incubated for 10 minutes at 25° C. in phosphate buffer (pH 6.8), and tyrosinase from fungi (16U) (Fluka) is subsequently added. The optical density of the samples is measured at 470 nm against a negative control (without active compound). Kojic acid is likewise tested as tyrosinase reference, i.e. positive control.
The results are shown in the following table, expressed in the IC50 value (the concentration of the test compound at which 50% of the tyrosinase activity is inhibited).

IC50 (concentration of the test compound at which 50% of the tyrosinase activity is inhibited)	SMILES
No inhibition	Cc1cc(O)c(C)c2c1OC(=O)CC2(C)C [Example 10, 6-hydroxy-4,4,5,8-tetramethylchroman-2-one]
No inhibition	Cc1c(C)c2c(c(C)c1O)C(C)(C)CC(=O)O2 [Example 11, 6-hydroxy-4,4,5,7,8-pentamethylchroman-2-one]

same assay, conditions: tyrosinase from fungi (16U), phosphate buffer pH 6.8, 25° C., optical density at 470 nm, read-out: IC50 (concentration of the test compound at which 50% of the tyrosinase activity is inhibited)

IC50 [µM]	SMILES
25	CCCCCCc1cc2c(cc1O)OC(=O)CC2 [6-Hexyl-7-hydroxychroman-2-one, 6-hexyl-7-hydroxychroman-2-one]
1000	O=C1CCc2ccc(O)cc2O1 [7-Hydroxychroman-2-one, 7-hydroxychroman-2-one]
336	CCc1cc2c(cc1O)OC(=O)CC2 [6-Ethyl-7-hydroxychroman-2-one, 6-ethyl-7-hydroxychroman-2-one]

SMILES	IC50 [µM]
O=c1cc(CO)occ1O [Kojic acid]	12
